Assay results: the supplement of paper PMC10307832

Assays:
Test in all cases: relative viability (nuclei count vs DMSO), 5 days (fraction); higher = more cells survive
[1] = compound: C1COCCN1C2=NC(=NC3=C2OC4=C3C=CC=N4)C5=CC(=CC=C5)NC(=O)C6=CN=C(C=C6)N + CS(=O)(=O)CCNCc1ccc(-c2ccc3ncnc(Nc4ccc(OCc5cccc(F)c5)c(Cl)c4)c3c2)o1 [Lapatinib] (partner 2 µM)
How it was run: (§1)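 Relative viability divides the nuclei count in treated wells by that in vehicle wells. Lung cancer cell lines were seeded in 1536-well plates, dosed by pin tool the next day, and fixed and stained after 5 days in one step with final 0.05% Triton X-100, 1% formaldehyde and 1 ug/ml Hoechst. Dosing was a single drug or a fixed anchor-drug dose plus five library-drug doses (not always all listed) in √10 steps, and values are medians of duplicate plates imaged at 4×.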

[2] = compound: CN1CCC(CNc2ccc3ncc(-c4cccc(OC(F)(F)F)c4)n3n2)CC1 [SGI-1776] + C[C@]1(O)C[C@@H](c2nc(-c3ccc4ccc(-c5ccccc5)nc4c3)c3c(N)nccn32)C1 [Linsitinib] (partner 1 µM)
How it was run: as §1

[3] = compound: CN1CCC(CNc2ccc3ncc(-c4cccc(OC(F)(F)F)c4)n3n2)CC1 [SGI-1776] + CC(C)C[C@H](NC(=O)[C@H](Cc1ccccc1)NC(=O)c1cnccn1)B(O)O [Bortezomib] (partner 0.002 µM)
How it was run: as §1

[4] = compound: C1COCCN1C2=NC(=NC3=C2OC4=C3C=CC=N4)C5=CC(=CC=C5)NC(=O)C6=CN=C(C=C6)N + CC1(C)CCC(c2ccc(Cl)cc2)=C(CN2CCN(c3ccc(C(=O)NS(=O)(=O)c4ccc(N[C@H](CCN5CCOCC5)CSc5ccccc5)c(S(=O)(=O)C(F)(F)F)c4)cc3)CC2)C1 [Navitoclax] (partner 0.5 µM)
How it was run: as §1

Row | Cell Line | relative viability ([1]; first compound 0.02 µM) | relative viability ([1]; first compound 0.06325 µM) | relative viability ([1]; first compound 0.2 µM) | relative viability ([1]; first compound 0.6325 µM) | relative viability ([1]; first compound 2 µM) | relative viability ([2]; first compound 0.08 µM) | relative viability ([2]; first compound 0.8 µM) | relative viability ([2]; first compound 2.53 µM) | relative viability ([2]; first compound 8 µM) | relative viability ([3]; first compound 0.08 µM) | relative viability ([3]; first compound 0.8 µM) | relative viability ([3]; first compound 2.53 µM) | relative viability ([3]; first compound 8 µM) | relative viability ([4]; first compound 0.02 µM) | relative viability ([4]; first compound 0.06325 µM) | relative viability ([4]; first compound 0.2 µM) | relative viability ([4]; first compound 0.6325 µM) | relative viability ([4]; first compound 2 µM)
1 | RERF-LC-KJ | 0.976 | 0.922 | 0.844 | 0.769 | 0.65 | 0.909 | 0.877 | 0.9 | 0.711 | 1.1 | 1.08 | 0.956 | 1.04 | 0.966 | 0.995 | 0.759 | 1 | 0.712
2 | EBC-1 | 0.178 | 0.212 | 0.216 | 0.17 | 0.268 | 0.969 | 0.85 | 1.02 | 0.675 | 0.6 | 0.548 | 0.514 | 0.304 | 0.397 | 0.368 | 0.32 | 0.377 | 0.234
3 | HCC-15 | 0.865 | 0.883 | 0.811 | 0.818 | 0.511 | 0.866 | 0.942 | 0.87 | 0.657 | 1.03 | 1.03 | 1.02 | 0.886 | 0.678 | 0.786 | 0.684 | 0.605 | 0.452
4 | NCI-H1650 | 0.791 | 0.792 | 0.7 | 0.775 | 0.613 |  |  |  |  | 0.217 | 0.18 | 0.207 | 0.181 | 1.27 | 1.34 | 1.06 | 1.32 | 0.539
5 | COR-L 105 | 0.391 | 0.318 | 0.34 | 0.346 | 0.289 | 1.1 | 0.927 | 0.874 | 0.717 | 0.929 | 0.833 | 0.587 | 0.282 | 0.805 | 0.754 | 0.69 | 0.531 | 0.584
6 | NCI-H596 | 0.997 | 1.04 | 1 | 0.997 | 0.765 | 1.05 | 0.999 | 0.981 | 0.943 | 0.924 | 1.08 | 0.95 | 0.973 | 1.04 | 0.983 | 1.03 | 0.912 | 0.444
7 | LXF-289 | 0.939 | 0.97 | 0.99 | 0.9 | 0.696 | 0.992 | 0.98 | 1.01 | 0.97 | 1.03 | 1.04 | 1.02 | 0.973 | 0.989 | 1.02 | 0.973 | 0.924 | 0.711
8 | NCI-H1703 | 1.17 | 1.21 | 0.761 | 0.798 | 0.308 | 0.662 | 0.979 | 0.433 | 0.13 | 0.328 | 0.407 | 0.272 | 0.131 | 0.874 | 1.03 | 0.983 | 0.646 | 0.416
9 | NCI-H2170 | 0.245 | 0.265 | 0.251 | 0.286 | 0.297 |  |  |  |  |  |  |  |  | 0.674 | 0.605 | 0.673 | 0.525 | 0.413
10 | LOU-NH91 | 0.764 | 0.826 | 0.725 | 0.769 | 0.715 | 1.06 | 1.03 | 0.955 | 0.666 | 0.482 | 0.565 | 0.489 | 0.458 | 0.658 | 0.728 | 0.765 | 0.74 | 0.586
